In ChEMBL document CHEMBL1131361, “Structure-activity relationships in 2-aminodiphenylsulfides against trypanothione reductase from Trypanosoma cruzi” (Bioorg Med Chem Lett, 1998):

Test system: not listed separately
Test: Catalytic rate constant was determined
Format: ADME

First: CN1CCN(CCC(=O)Nc2cc(Br)ccc2Sc2cccc(NC(=O)CCCCCC(=O)OCC3=C(Br)C(=O)c4ccccc4C3=O)c2)CC1
Second: CC1=CC(=O)c2ccccc2C1=O [MENADIONE]
The “k cat/Km” value of the first is 6-fold lower: 8400 M⁻¹ s⁻¹ for the first, 50000 M⁻¹ s⁻¹ for the second.

Test system: not listed separately
Test: (§1) Michaelis constant was determined.
Format: ADME

In the case of `CN1CCN(CCC(=O)Nc2cc(Br)ccc2Sc2cccc(NC(=O)CCCCCC(=O)OCC3=C(Br)C(=O)c4ccccc4C3=O)c2)CC1`, the Km is reported as 160 µM.

Test system: not listed separately
Test: as §1

`CC1=CC(=O)c2ccccc2C1=O` [MENADIONE] gave a Km of 882 µM.

Molecular target: Trypanothione reductase (Trypanosoma cruzi, UniProt P28593)
Test: Inhibition of trypanothione reductase from Trypanosoma cruzi, in the presence 57 uM of trypanothione T(SH)2

Chain of Trypanothione reductase (P28593 whole entry): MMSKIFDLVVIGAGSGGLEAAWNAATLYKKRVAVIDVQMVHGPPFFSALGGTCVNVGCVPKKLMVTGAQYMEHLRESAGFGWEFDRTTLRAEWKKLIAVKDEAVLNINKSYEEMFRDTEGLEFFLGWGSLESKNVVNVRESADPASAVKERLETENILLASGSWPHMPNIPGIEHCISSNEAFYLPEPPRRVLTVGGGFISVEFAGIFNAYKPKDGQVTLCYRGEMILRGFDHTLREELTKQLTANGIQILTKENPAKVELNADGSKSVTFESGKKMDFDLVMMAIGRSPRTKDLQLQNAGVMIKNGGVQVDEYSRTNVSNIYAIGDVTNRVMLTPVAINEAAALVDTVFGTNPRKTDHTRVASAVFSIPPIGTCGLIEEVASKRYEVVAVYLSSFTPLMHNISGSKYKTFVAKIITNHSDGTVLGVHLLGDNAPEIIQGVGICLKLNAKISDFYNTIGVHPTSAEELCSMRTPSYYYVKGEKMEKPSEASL

Going from `CN1CCN(CCC(=O)Nc2ccccc2Sc2cccc(NC(=O)CCCCCC(=O)Nc3cccc(Sc4ccccc4N)c3)c2)CC1` to `CN1CCN(CCC(=O)Nc2cc(Br)ccc2Sc2cccc(NC(=O)CCCCCC(=O)Nc3cccc(Sc4ccccc4N)c3)c2)CC1`, the IC50 rises from 1.8 µM to 16 µM (8.9-fold). The first is the more potent here.

First: CCCCCCCNC(=O)CCCC(=O)Nc1cccc(Sc2ccc(Br)cc2NC(=O)CCN2CCN(C)CC2)c1
Second: CCCCCCCCCCCCCCCCNC(=O)CCCC(=O)Nc1cccc(Sc2ccc(Br)cc2NC(=O)CCN2CCN(C)CC2)c1
The IC50 of the first is lower: 23 µM for the first, over 60 µM for the second. The first is the more potent here.

Compared with `CN1CCN(CCC(=O)Nc2cc(Br)ccc2Sc2cccc(NC(=O)CCCC(=O)NCC3CCCCC3)c2)CC1`, `CN1CCN(CCC(=O)Nc2cc(Br)ccc2Sc2cccc(NC(=O)CCCC(=O)NCC3CCCO3)c2)CC1` (centres undefined) is higher in IC50: 47 µM for the first, over 60 µM for the second.

`CN1CCN(CCC(=O)Nc2cc(Br)ccc2Sc2cccc(NC(=O)CCCC(=O)NCC34C[C@H]5C[C@@H](C3)C[C@@H](C4)C5)c2)CC1` and `CN1CCN(CCC(=O)Nc2cc(Br)ccc2Sc2cccc(NC(=O)CCCC(=O)NCc3ccccn3)c2)CC1` cannot be ordered by IC50: over 60 µM for the first, over 60 µM for the second.

`CN1CCN(CCC(=O)Nc2cc(Br)ccc2Sc2cccc(NC(=O)CCCC(=O)NC(c3ccccc3)c3ccccc3)c2)CC1` and `CN1CCN(CCC(=O)Nc2cc(Br)ccc2Sc2cccc(NC(=O)CCCC(=O)NCc3ccccc3)c2)CC1` are within 1.5-fold of each other in IC50: 28 µM for the first, 35 µM for the second.

`CN1CCN(CCC(=O)Nc2cc(Br)ccc2Sc2cccc(NC(=O)CCCC(=O)NCc3ccc4ccccc4c3)c2)CC1` and `CN1CCN(CCC(=O)Nc2cc(Br)ccc2Sc2cccc(NC(=O)CCCC(=O)NCCc3ccccc3)c2)CC1` are within 1.5-fold of each other in IC50: 25 µM for the first, 20 µM for the second.

First: CN1CCN(CCC(=O)Nc2cc(Br)ccc2Sc2cccc(NC(=O)CCCCCC(=O)OCC3=C(Br)C(=O)c4ccccc4C3=O)c2)CC1
Second: CN1CCN(CCC(=O)Nc2cc(Br)ccc2Sc2cccc(NC(=O)CCCCCC(=O)Nc3ccc(N)c4c3C(=O)c3ccccc3C4=O)c2)CC1
The IC50 of the first is lower: 41 µM for the first, over 60 µM for the second. The first is the more potent here.

Compared with `CN1CCN(CCC(=O)Nc2cc(Br)ccc2Sc2cccc(NC(=O)CCCCCC(=O)Nc3ccccc3)c2)CC1`, `CN1CCN(CCC(=O)Nc2cc(Br)ccc2Sc2cccc(NC(=O)CCCCCC(=O)Nc3cccc(Sc4ccccc4[N+](=O)[O-])c3)c2)CC1` is higher in IC50: 14 µM for the first, over 60 µM for the second.

First: CN1CCN(CCC(=O)Nc2cc(Br)ccc2Sc2cccc(NC(=O)CCCC(=O)NCc3ccc4c(c3)OCO4)c2)CC1
Second: CCN(CC)C(=O)CCCC(=O)Nc1cccc(Sc2ccc(Br)cc2NC(=O)CCN2CCN(C)CC2)c1
The IC50 of the first is lower: 33 µM for the first, over 60 µM for the second.

Going from `CN(C)Cc1ccc(Nc2ccc(NC(=O)CCCCCC(=O)Nc3cccc(Sc4ccc(Br)cc4NC(=O)CCN4CCN(C)CC4)c3)c3c2C(=O)c2ccccc2C3=O)cc1` to `CN1CCN(CCC(=O)Nc2cc(Br)ccc2Sc2cccc(NC(=O)CCCC(=O)Nc3cccc(Sc4ccc(Br)cc4NC(=O)CCN4CCN(C)CC4)c3)c2)CC1`, the IC50 falls from 3.3 µM to 0.55 µM (6-fold). The second is the more potent here.
